Tests used:
[1] = Kinetic thiol consumption assay with model thiol glutathione; type: physicochemical; set-up: Rate constant with glutathione (k(GSH)): unit not given here; conditions: for Rate constant with glutathione (k(GSH)): 500 μM ligand, 5 μM thiol, phosphate buffer pH 8; for Rate constant with Glutathione: Protein: Glutathione, cysteine position NA, in h-1
In short: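 Rate constants for acrylamide reaction with 5 μM glutathione come from first-order exponential fits of normalized fluorescence decay (ex 380, em 470 nm). Reactions run in degassed phosphate buffer at pH 8 containing TCEP beads, room temperature.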

[2] = molecular target: T1, human cyclin-dependent kinase 2 (Cdk2) (Homo sapiens, UniProt P24941); assay: Kinetic thiol consumption assay with wild type Cdk2 (C177); type: binding; set-up: key to Rate enhancement, Cdk2 WT: k(Cdk2) divided by k(model thiol); Rate constant with Cdk2 (k(Cdk2)): unit not given here; conditions: for Rate constant with Cdk2 (k(Cdk2)): 500 μM ligand, 5 μM thiol, phosphate buffer pH 8; for Rate enhancement, Cdk2 WT: no additional mutations; for Rate constant with Cdk2 WT: Protein: Cdk2, cysteine position WT, in h^-1; for k(Cdk2)/k(Cdk2_mut) rate enhancement: model thiol Cdk2[C177A, F80C, K278C]; for k(Cdk2)/k(GSH) rate enhancement: model thiol glutathione
T1 construct: poly-histidine; made in house; host or cells: E. coli
In short: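 Rate constants came from first-order exponential decay fits of normalized fluorescence against time, with thiol (5 μM) in degassed pH 8 phosphate buffer containing 2% v/v TCEP beads and reads after 1 h at room temperature.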

[3] = molecular target: T2, Cdk2[C177A, F80C, K278C] (Homo sapiens, UniProt P24941, C177A/F80C/K278C); assay: Kinetic thiol consumption assay with mutant Cdk2 as model thiol; type: binding; set-up: unit not given here; conditions: 500 μM ligand, 5 μM thiol, phosphate buffer pH 8
T2 construct: poly-histidine; made in house; host or cells: E. coli
In short: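 First-order rate constants were derived by exponential-decay fitting of DMSO/thiol-normalized fluorescence (380/470 nm) over time at room temperature. Thiol was 5 μM E. coli-expressed His-tagged Cdk2 mutant C177A/F80C/K278C in degassed pH 8 phosphate buffer containing 2% v/v TCEP beads.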

[4] = molecular target: T3, Cdk2(C177A, F80C) (Homo sapiens, UniProt P24941, C177A/F80C); assay: Kinetic thiol consumption assay with Cdk2 mutant F80C, incl. kobs versus concentration (Kd, k2); type: binding; set-up: key to Rate enhancement, Cdk2 F80C: Cdk2 rate constant divided by model-thiol rate constant; conditions: additional mutation C177A; for Rate constant with Cdk2 F80C: Protein: Cdk2, cysteine position F80C, in h^-1
T3 construct: poly-histidine; made in house; host or cells: E. coli
In short: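 His-tagged Cdk2(C177A/F80C) from E. coli or model thiol, 5 μM in degassed phosphate buffer pH 8 with TCEP beads, reacted with acrylamide ligands; fluorescence (ex/em 380/470 nm) normalized to DMSO control and fitted to first-order decay for kobs. Kd and k2 obtained from hyperbolic fit of kobs versus ligand concentration.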

[5] = molecular target: T4, Cdk2(H71C) (C177A) (Homo sapiens, UniProt P24941, C177A/H71C); assay: Kinetic thiol consumption assay with Cdk2 mutant H71C; type: binding; set-up: key to Rate enhancement, Cdk2 H71C: rate constant with Cdk2 ÷ rate constant with model thiol (fold); conditions: additional mutation C177A; for Rate constant with Cdk2 H71C: Protein: Cdk2, cysteine position H71C, in h^-1
T4 construct: poly-histidine; made in house; host or cells: E. coli
In short: (§1)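 Read-out is fluorescence at 380/470 nm, taken after 1 h at room temperature and normalized to a DMSO/thiol-only control over time. Thiol (5 μM Cdk2 mutant or model thiol) was in degassed pH 8 phosphate buffer with 2% v/v TCEP beads. Acrylamide rate constants for Cdk2 were divided by those with model thiol.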

[6] = molecular target: T5, Cdk2(S276C) (C177A) (Homo sapiens, UniProt P24941, C177A/S276C); assay: Kinetic thiol consumption assay with Cdk2 mutant S276C; type: binding; set-up: key to Rate enhancement, Cdk2 S276C: rate constant with Cdk2 ÷ rate constant with model thiol (fold); conditions: additional mutation C177A; for Rate constant with Cdk2 S276C: Protein: Cdk2, cysteine position S276C, in h^-1
T5 construct: poly-histidine; made in house; host or cells: E. coli
In short: as §1

[7] = molecular target: T6, Cdk2(N272C) (C177A) (Homo sapiens, UniProt P24941, C177A/N272C); assay: Kinetic thiol consumption assay with Cdk2 mutant N272C; type: binding; set-up: key to Rate enhancement, Cdk2 N272: rate constant with Cdk2 ÷ rate constant with model thiol (fold); conditions: for Rate enhancement, Cdk2 N272: Cdk2 N272, additional mutation C177A; for Rate constant with Cdk2 N272C: Protein: Cdk2, cysteine position N272C, additional mutation C177A, in h^-1
T6 construct: poly-histidine; made in house; host or cells: E. coli
In short: as §1

[8] = molecular target: T7, Cdk2(T182C) (C177A) (Homo sapiens, UniProt P24941, C177A/T182C); assay: Kinetic thiol consumption assay with Cdk2 mutant T182C; type: binding; set-up: key to Rate enhancement, Cdk2 T182C: rate constant with Cdk2 ÷ rate constant with model thiol (fold); conditions: additional mutation C177A; for Rate constant with Cdk2 T182C: Protein: Cdk2, cysteine position T182C, in h^-1
T7 construct: poly-histidine; made in house; host or cells: E. coli
In short: as §1

[9] = molecular target: T8, Cdk2(R122C) (C177A) (Homo sapiens, UniProt P24941, C177A/R122C); assay: Kinetic thiol consumption assay with Cdk2 mutant R122C; type: binding; set-up: key to Rate enhancement, Cdk2 R122C: rate constant with Cdk2 ÷ rate constant with model thiol (fold); conditions: additional mutation C177A; for Rate constant with Cdk2 R122C: Protein: Cdk2, cysteine position R122C, in h-1
T8 construct: poly-histidine; made in house; host or cells: E. coli
In short: as §1

[10] = molecular target: T9, Cdk2(S181C) (C177A) (Homo sapiens, UniProt P24941, C177A/S181C); assay: Kinetic thiol consumption assay with Cdk2 mutant S181C; type: binding; set-up: key to Rate enhancement, Cdk2 S181C: rate constant with Cdk2 ÷ rate constant with model thiol (fold); conditions: additional mutation C177A; for Rate constant with Cdk2 S181C: Protein: Cdk2, cysteine position S181C, in h^-1
T9 construct: poly-histidine; made in house; host or cells: E. coli
In short: as §1

Row | Compound | Rate constant with Cdk2 (k(Cdk2)) [2] | Rate enhancement, Cdk2 WT [2] | Rate constant with Cdk2 WT [2] | k(Cdk2)/k(Cdk2_mut) rate enhancement [2] | k(Cdk2)/k(GSH) rate enhancement [2] | Rate constant with Cdk2[C177A, F80C, K278C] (k(Cdk2_mut)) [3] | Rate enhancement, Cdk2 F80C [4] | Rate constant with Cdk2 F80C [4] | Rate enhancement, Cdk2 H71C [5] | Rate enhancement, Cdk2 S276C [6] | Rate constant with Cdk2 S276C [6] | Rate enhancement, Cdk2 N272 [7] | Rate constant with Cdk2 N272C [7] | Rate enhancement, Cdk2 T182C [8] | Rate constant with Cdk2 T182C [8] | Rate enhancement, Cdk2 R122C [9] | Rate enhancement, Cdk2 S181C [10] | Rate constant with Cdk2 S181C [10] | Rate constant with glutathione (k(GSH)) [1] | Rate constant with Glutathione [1] | other results
1 | C=CC(=O)N1CC2CCCCCCC21 (stereo not drawn) [CA-098] | 0.01499 | 0.9446 | 0.0242 | 2.745 | 0.9287 | 0.00546 | 0.5929 | 0.01519 | 0.8002 | 3.196 | 0.08188 | 6.698 | 0.1716 | 4.766 | 0.1221 | 0.3481 | 0.8872 | 0.02273 | 0.01614 | 0.02562 | Rate constant with Cdk2 H71C [5]: 0.0205; Rate constant with Cdk2 R122C [9]: 0.008918
2 | C=CC(=O)N1CC2CCN(Cc3ccccc3)C2C1 (stereo not drawn) [CA-190] | 0.00347 | 0.248 | 0.003469 | 1.136 | 0.2735 | 0.00305 | 0.3783 | 0.005293 | 0 | 0.3527 | 0.004934 | 0.2334 | 0.003265 | 0.8134 | 0.01138 | 0.501 | 0.2548 | 0.003565 | 0.01268 | 0.01399 | Rate constant with Cdk2 R122C [9]: 0.007009
3 | C=CC(=O)N1CCC2(CC1)NC(=O)N(C)C2=O [CA-046] | 0.00343 | 0.2104 | 0.003432 | 1.377 | 0.3593 | 0.00249 | 0.1163 | 0.001897 | 0.07112 | 0.7069 | 0.01153 | 0.09295 | 0.001516 | 0.595 | 0.009705 | 0.2397 | 0.1987 | 0.00324 | 0.00955 | 0.01631 | Rate constant with Cdk2 H71C [5]: 0.00116; Rate constant with Cdk2 R122C [9]: 0.00391
4 | C=CC(=O)NCc1ccc(C(=O)OC)cc1 [BN-65] | 0.00121 | 0.7866 | 0.001861 | 0.3031 | 0.4134 | 0.00398 | 2.644 | 0.006255 | 0.538 | 1.179 | 0.002789 | 0.9112 | 0.002156 | 0.8711 | 0.002061 | 0 | 0.5182 | 0.001226 | 0.00292 | 0.002366 | Rate constant with Cdk2 H71C [5]: 0.001273
5 | C=CC(=O)N1CCN(c2ccccc2[N+](=O)[O-])CC1 [EL-1134] | 0.0071 | 1.609 | 0.007099 | 0.3385 | 1.597 | 0.02097 | 3.947 | 0.01742 | 4.627 | 1.414 | 0.006242 | 1.119 | 0.004938 | 14.4 | 0.06354 | 1.145 | 1.601 | 0.007065 | 0.00444 | 0.004413 | Rate constant with Cdk2 H71C [5]: 0.02042; Rate constant with Cdk2 R122C [9]: 0.005054

Further lines, with some results ahead:

Row | Rate constant with Cdk2 (k(Cdk2)) [2] | Rate enhancement, Cdk2 WT [2] | Rate constant with Cdk2 WT [2] | k(Cdk2)/k(Cdk2_mut) rate enhancement [2] | k(Cdk2)/k(GSH) rate enhancement [2] | Rate constant with Cdk2[C177A, F80C, K278C] (k(Cdk2_mut)) [3] | Rate enhancement, Cdk2 F80C [4] | Rate constant with Cdk2 F80C [4] | Rate enhancement, Cdk2 H71C [5] | Rate enhancement, Cdk2 S276C [6] | Rate constant with Cdk2 S276C [6] | Rate enhancement, Cdk2 N272 [7] | Rate constant with Cdk2 N272C [7] | Rate enhancement, Cdk2 T182C [8] | Rate constant with Cdk2 T182C [8] | Rate enhancement, Cdk2 R122C [9] | Rate enhancement, Cdk2 S181C [10] | Rate constant with Cdk2 S181C [10] | Compound | Rate constant with glutathione (k(GSH)) [1] | Rate constant with Glutathione [1] | other results
6 | 0.00314 | 1.173 | 0.005012 | 0.5247 | 1.101 | 0.00599 | 1.7587E−11 | 7.515E−14 | 0 | 0.4117 | 0.001759 | 0.608 | 0.002598 | 1.828 | 0.007812 | 0.229 | 0.09078 | 0.0003879 | C=CC(=O)NCCc1c(-c2ccccn2)[nH]c2ccc(F)cc12 [EL-1084] | 0.00286 | 0.004273 | Rate constant with Cdk2 R122C [9]: 0.0009787
7 | 0.00519 | 0.6362 | 0.005124 | 0.1479 | 0.6204 | 0.03512 | 1.711 | 0.01378 | 0.3662 | 0.2841 | 0.002288 | 0 | – | 2.136 | 0.0172 | 0.6595 | 0.7584 | 0.006108 | C=CC(=O)Nc1ccccc1-c1ccccc1 [EL-1012] | 0.00837 | 0.008054 | Rate constant with Cdk2 H71C [5]: 0.002949; Rate constant with Cdk2 R122C [9]: 0.005312

— patent US11415579B2, “Assay for measuring a rate of reaction between a target and a ligand candidate” (Imperial College Innovations Ltd., priority 2016, dated 2022)
